Molecular target: Recombinant human LTC4 synthase (Homo sapiens (Human), UniProt Q16873)
Experiment: In vitro hLTC4 synthase enzyme assay (Test A)
Format: biochemical
Conditions: Test A (Examples 1-61); substrate LTA4, LTC4 detected by HTRF; median of at least two determinations
Method: In Vitro hLTC4 Synthase Enzyme Assay (Test A)
Recombinant human LTC4 synthase is expressed in Piccia pastoralis and the purified enzyme is dissolved in 25 mM tris-buffer pH 7.8 supplemented with 0.1 mM glutathione (GSH) and stored at −80° C.
The buffer is used as background. Runs are performed in duplicates.
The reaction is stopped after 1 min by addition of double the reaction volume of a stop solution (MeOH:H2O:acetic acid 70:30:1).
After 15 fold dilution in PBS, LTC4 formation is detected with LTC4 HTRF kit (Cisbio, cat. No 64LC4PEC) and a fluorescence reader. Typically 6 μL of sample is mixed with 3 μL of each of the HTRF reagents d2 and k and analyzed as described in the kit manual.

Recombinant human LTC4 synthase, sequence (Q16873 whole entry): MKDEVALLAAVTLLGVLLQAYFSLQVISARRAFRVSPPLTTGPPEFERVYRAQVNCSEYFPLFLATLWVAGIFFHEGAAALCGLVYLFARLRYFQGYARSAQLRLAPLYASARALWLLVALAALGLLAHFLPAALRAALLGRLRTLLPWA

| SMILES | IC50 [nM] |
| --- | --- |
| COc1cc(N(CC2(C(F)(F)F)CC2)c2ccc(Cl)cc2)cnc1C(=O)C1CC1C(=O)O (stereo not drawn) [Example 3, 2-(5-((4-Chlorophenyl)((1-(trifluoromethyl)cyclopropyl)methyl)amino)-3-methoxypicolinoyl)cyclopropanecarboxylic acid] | 149 |
| COCC1(CN(c2ccc(Cl)cc2)c2cnc(C(=O)C3CC3C(=O)O)c(OC)c2)CC1 (stereo not drawn) [Example 4, 2-(5-((4-Chlorophenyl)((1-(methoxymethyl)cyclopropyl)methyl)amino)-3-methoxypicolinoyl)cyclopropanecarboxylic acid] | 263 |
| COc1cc(N(CC2(C)CC2)c2ccc(Cl)cc2)cnc1C(=O)C1CC1C(=O)O (stereo not drawn) [Example 5, 2-(5-((4-Chlorophenyl)((1-methylcyclopropyl)methyl)amino)-3-methoxypicolinoyl)cyclopropanecarboxylic acid] | 38 |
| COc1cc(N(CC2(C)CC2)c2ccc3c(c2)CCC3)cnc1C(=O)C1CC1C(=O)O (stereo not drawn) [Example 6, 2-(5-((2,3-Dihydro-1H-inden-5-yl)((1-methylcyclopropyl)methyl)amino)-3-methoxypicolinoyl)cyclopropanecarboxylic acid] | 47 |
| COc1cc(N(CC2CC2)c2ccc(C)c3ncccc23)cnc1C(=O)C1CC1C(=O)O (stereo not drawn) [Example 8, 2-(5-((Cyclopropylmethyl)(8-methylquinolin-5-yl)amino)-3-methoxypicolinoyl)cyclopropanecarboxylic acid] | 279 |
| COc1cc(N(CC2CC2)c2cccc3ccccc23)cnc1C(=O)C1CC1C(=O)O (stereo not drawn) [Example 9, 2-(5-((Cyclopropylmethyl)(naphthalen-1-yl)amino)-3-methoxypicolinoyl)cyclopropanecarboxylic acid] | 24 |
| COc1cc(N(CC2CC2)c2ccc(C)c3ccccc23)cnc1C(=O)C1CC1C(=O)O (stereo not drawn) [Example 11, 2-(5-((Cyclopropylmethyl)(4-methylnaphthalen-1-yl)amino)-3-methoxypicolinoyl)cyclopropanecarboxylic acid] | 35 |
| COc1cc(N(CC2CC2)c2ccc3ccccc3c2)cnc1C(=O)C1CC1C(=O)O (stereo not drawn) [Example 12, 2-(5-((Cyclopropylmethyl)(naphthalen-2-yl)amino)-3-methoxypicolinoyl)cyclopropanecarboxylic acid] | 28 |
| COc1cc(N(Cc2ccc(Cl)cc2)CC2CC2)cnc1C(=O)C1CC1C(=O)O (stereo not drawn) [Example 13, 2-(5-((4-Chlorobenzyl)(cyclopropylmethyl)amino)-3-methoxypicolinoyl)cyclopropanecarboxylic acid] | 34 |
| COc1cc(N(Cc2ccc3ccccc3c2)CC2CC2)cnc1C(=O)C1CC1C(=O)O (stereo not drawn) [Example 17, 2-(5-((Cyclopropylmethyl)(naphthalen-2-ylmethyl)amino)-3-methoxypicolinoyl)cyclopropanecarboxylic acid] | 34 |
| COc1cc(N(Cc2cccc(Cl)c2)CC2CC2)cnc1C(=O)C1CC1C(=O)O (stereo not drawn) [Example 18, 2-(5-((3-Chlorobenzyl)(cyclopropylmethyl)amino)-3-methoxypicolinoyl)cyclopropanecarboxylic acid] | 39 |
| COc1cc(N(Cc2ccc(F)cc2)CC2CC2)cnc1C(=O)C1CC1C(=O)O (stereo not drawn) [Example 19, 2-(5-((Cyclopropylmethyl)(4-fluorobenzyl)amino)-3-methoxypicolinoyl)cyclopropanecarboxylic acid] | 105 |
| COc1cc(N(Cc2cccc(C(F)(F)F)c2C)CC2CC2)cnc1C(=O)C1CC1C(=O)O (stereo not drawn) [Example 20, 2-(5-((Cyclopropylmethyl)(2-methyl-3-(trifluoromethyl)benzyl)amino)-3-methoxypicolinoyl)cyclopropanecarboxylic acid] | 88 |
| COc1cc(N(Cc2cccc(C(F)(F)F)c2Cl)CC2CC2)cnc1C(=O)C1CC1C(=O)O (stereo not drawn) [Example 22, 2-(5-((2-Chloro-3-(trifluoromethyl)benzyl)(cyclopropylmethyl)amino)-3-methoxypicolinoyl)cyclopropanecarboxylic acid] | 112 |
| COc1cc(N(Cc2c(C)ccc3ccccc23)CC2CC2)cnc1C(=O)C1CC1C(=O)O (stereo not drawn) [Example 23, 2-(5-((Cyclopropylmethyl)((2-methylnaphthalen-1-yl)methyl)amino)-3-methoxypicolinoyl)cyclopropanecarboxylic acid] | 1840 |
| COc1cc(N(CC2CC2)c2ccc3c4c(cccc24)CC3)cnc1C(=O)C1CC1C(=O)O (stereo not drawn) [Example 36, 2-(5-((Cyclopropylmethyl)(1,2-dihydroacenaphthylen-5-yl)amino)-3-methoxypicolinoyl)cyclopropanecarboxylic acid] | 9 |

Now from value to compound:

| IC50 [nM] | SMILES |
| --- | --- |
| 67 | COc1cc(N(Cc2cccc(C)c2C)CC2CC2)cnc1C(=O)C1CC1C(=O)O (stereo not drawn) [Example 28, 2-(5-((Cyclopropylmethyl)(2,3-dimethylbenzyl)amino)-3-methoxypicolinoyl)cyclopropanecarboxylic acid] |
| 370 | COc1cc(N(Cc2ccc(F)c(F)c2F)CC2CC2)cnc1C(=O)C1CC1C(=O)O (stereo not drawn) [Example 29, 2-(5-((Cyclopropylmethyl)(2,3,4-trifluorobenzyl)amino)-3-methoxypicolinoyl)cyclopropanecarboxylic acid] |
| 152 | COc1cc(N(Cc2ccc(F)c(Cl)c2F)CC2CC2)cnc1C(=O)C1CC1C(=O)O (stereo not drawn) [Example 30, 2-(5-((3-Chloro-2,4-difluorobenzyl)(cyclopropylmethyl)amino)-3-methoxypicolinoyl)cyclopropanecarboxylic acid] |
| 331 | COc1cc(N(Cc2cccc(C(F)(F)F)c2F)CC2CC2)cnc1C(=O)C1CC1C(=O)O (stereo not drawn) [Example 31, 2-(5-((Cyclopropylmethyl)(2-fluoro-3-(trifluoromethyl)benzyl)amino)-3-methoxypicolinoyl)cyclopropanecarboxylic acid] |
| 1670 | COc1cc(N(Cc2c(F)ccc(C)c2F)CC2CC2)cnc1C(=O)C1CC1C(=O)O (stereo not drawn) [Example 32, 2-(5-((Cyclopropylmethyl)(2,6-difluoro-3-methylbenzyl)amino)-3-methoxypicolinoyl)cyclopropanecarboxylic acid] |
| 185 | COc1cc(N(Cc2ccc(C)c(F)c2F)CC2CC2)cnc1C(=O)C1CC1C(=O)O (stereo not drawn) [Example 33, 2-(5-((Cyclopropylmethyl)(2,3-difluoro-4-methylbenzyl)amino)-3-methoxypicolinoyl)cyclopropanecarboxylic acid] |
| 19 | COc1cc(N(CC2CC2)c2ccc(C(F)(F)F)c3ccccc23)cnc1C(=O)C1CC1C(=O)O (stereo not drawn) [Example 34, 2-(5-((Cyclopropylmethyl)(4-(trifluoromethyl)naphthalen-1-yl)amino)-3-methoxypicolinoyl)cyclopropanecarboxylic acid] |
| 229 | COc1cc(N(CC2CC2)c2ccc(C(F)(F)F)c3cccnc23)cnc1C(=O)C1CC1C(=O)O (stereo not drawn) [Example 35, 2-(5-((Cyclopropylmethyl)(5-(trifluoromethyl)quinolin-8-yl)amino)-3-methoxypicolinoyl)cyclopropanecarboxylic acid] |
| 25 | COc1cc(N(CC2CC2)c2cccc3c(C(F)(F)F)cccc23)cnc1C(=O)C1CC1C(=O)O (stereo not drawn) [Example 37, 2-(5-((Cyclopropylmethyl)(5-(trifluoromethyl)naphthalen-1-yl)amino)-3-methoxypicolinoyl)cyclopropanecarboxylic acid] |
| 31 | COc1cc(N(CC2CC2)c2ccc3cccc4c3c2CC4)cnc1C(=O)C1CC1C(=O)O (stereo not drawn) [Example 38, 2-(5-((Cyclopropylmethyl)(1,2-dihydroacenaphthylen-3-yl)amino)-3-methoxypicolinoyl)cyclopropanecarboxylic acid] |
| 356 | COc1cc(N(CC2CC2)c2ccc(Cl)cc2)cnc1C(=O)C1CC1C(=O)NS(=O)(=O)C1CC1 (stereo not drawn) [Example 40, 2-(5-((4-Chlorophenyl)(cyclopropylmethyl)amino)-3-methoxypicolinoyl)-N-(cyclopropylsulfonyl)-cyclopropanecarboxamide] |
| 81 | COc1ccc(S(=O)(=O)NC(=O)C2CC2C(=O)c2ncc(N(CC3CC3)c3ccc(Cl)cc3)cc2OC)cc1 (stereo not drawn) [Example 41, 2-(5-((4-Chlorophenyl)(cyclopropylmethyl)amino)-3-methoxypicolinoyl)-N-((4-methoxyphenyl)sulfonyl)-cyclopropanecarboxamide] |
| 277 | COc1cc(N(CC2CC2)c2ccc(Cl)cc2)cnc1C(=O)C1CC1C(=O)NS(=O)(=O)c1ccc(OC(F)(F)F)cc1 (stereo not drawn) [Example 42, 2-(5-((4-Chlorophenyl)(cyclopropylmethyl)amino)-3-methoxypicolinoyl)-N-((4-(trifluoromethoxy)phenyl)-sulfonyl)cyclopropanecarboxamide] |
| 74 | COc1cc(N(CC2CC2)c2ccc(Cl)cc2)cnc1C(=O)C1CC1C(=O)NS(=O)(=O)c1ccccc1F (stereo not drawn) [Example 43, 2-(5-((4-Chlorophenyl)(cyclopropylmethyl)amino)-3-methoxypicolinoyl)-N-((2-fluorophenyl)sulfonyl)-cyclopropanecarboxamide] |
| 62 | COc1cc(N(CC2CC2)c2ccc(C)c3ccccc23)ccc1C(=O)C1CC1C(=O)O (stereo not drawn) [Example 45, 2-(4-((Cyclopropylmethyl)(4-methylnaphthalen-1-yl)amino)-2-methoxybenzoyl)cyclopropanecarboxylic acid] |
| 26 | COc1cc(N(CC2CC2)c2ccc(F)c3ccccc23)ccc1C(=O)C1CC1C(=O)O (stereo not drawn) [Example 46, 2-(4-((Cyclopropylmethyl)(4-fluoronaphthalen-1-yl)amino)-2-methoxybenzoyl)cyclopropanecarboxylic acid] |
| 61 | COc1cc(N(CC2CC2)c2ccc(Cl)c3ccccc23)ccc1C(=O)C1CC1C(=O)O (stereo not drawn) [Example 47, 2-(4-((4-Chloronaphthalen-1-yl)(cyclopropylmethyl)amino)-2-methoxybenzoyl)cyclopropanecarboxylic acid] |

Reference: patent US20160326143A1, “COMPOUNDS AND USES” (AstraZeneca AB, priority 2015, published 2016)
